In PubChem BioAssay AID977614 (Broad Institute, 2014) one finds AC50 data, which are given here for 69 compounds.

Each structure is given as a SMILES string. Activity calls are given as the source filed them.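 Rule for the calls: active = parasite count per well reduced by over 3 SD from the mean, with host cell number above 80% of untreated; inactive = the rest.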

For the assay, the system named is L. donovani amastigotes in THP-1 macrophages, DAPI imaging, 72 h. Nature of the assay: L. donovani intracellular amastigote growth inhibitors, imaging, THP-1 host macrophages, single concentration (AID 977614).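 Note: signal is the parasite per host cell ratio from DAPI stained kinetoplasts and nuclei.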
The term AC50 denotes the concentration at which the activity in the assay is half-maximal. For the compound `CC(=O)N1[C@H](CO)[C@H](c2ccccc2)[C@H]1CN(C)S(=O)(=O)c1ccccc1`, the AC50 was > 10 µM (inactive). Regarding `CCNC[C@@H]1[C@H](c2ccccc2)[C@H](CO)N1C(=O)Cc1ccccn1`, the AC50 was > 10 µM (inactive). Turning to `CCC(=O)N1C[C@H]2[C@@H](c3ccccc31)[C@H](CO)N2C(=O)CC1CC1`, the AC50 was > 10 µM (inactive).

Turning to `COc1ccc(CN(C)C[C@@H]2OCc3cnnn3CCCC(=O)N([C@H](C)CO)C[C@@H]2C)cc1`, the AC50 is > 10 µM (inactive). In the case of `COc1ccccc1S(=O)(=O)N(C)C[C@H]1OCc2cn(nn2)CCCC(=O)N([C@@H](C)CO)C[C@@H]1C`, the AC50 is > 10 µM (inactive). The same measure for `O=C(CC(F)(F)F)N1C[C@@H]2[C@H](c3ccccc31)[C@H](CO)N2C(=O)c1ccncc1`: > 10 µM (inactive); for `C[C@@H]1CN([C@@H](C)CO)C(=O)CCCn2nncc2CO[C@@H]1CN(C)S(=O)(=O)c1ccc2c(c1)OCCCO2`: > 10 µM (inactive); for `O=C(C1CCC1)N1C[C@H]2[C@@H](c3ccccc31)[C@@H](CO)N2Cc1ccccc1`: > 10 µM (inactive). In the case of `O=C(CN1CCOCC1)N(CC1CCC1)C[C@H]1N[C@H](CO)[C@@H]1c1ccccc1`, the AC50 is > 10 µM (inactive). The same measure for `Cc1noc(C)c1NC(=O)N(C)C[C@@H]1OCc2cnnn2CCCC(=O)N([C@@H](C)CO)C[C@H]1C`: > 10 µM (inactive); for `C[C@H](CO)N1C[C@H](C)[C@H](CN(C)C(=O)c2ccc(N3CCN(C)CC3)cc2)OCc2cnnn2CCCC1=O`: > 10 µM (inactive). Consider `C[C@H](CO)N1C[C@H](C)[C@@H](CN(C)C(=O)Nc2cccc(Oc3ccccn3)c2)OCc2cnnn2CCCC1=O`, for which the AC50 is > 10 µM (inactive).

With `C[C@H](CO)N1C[C@H](C)[C@@H](CN(C)C(=O)CCC(F)(F)F)OCc2cn(nn2)CCCC1=O`, the AC50 was > 10 µM (inactive). The same measure for `O=C(C1CCOCC1)N1C[C@@H]2[C@H](c3ccccc31)[C@H](CO)N2C(=O)Cc1ccccn1`: > 10 µM (inactive); for `C[C@H](CO)N1C[C@H](C)[C@@H](CN(C)C(=O)Oc2ccc3ccccc3c2)OCc2cn(nn2)CCCC1=O`: > 10 µM (inactive). As to `CCN(C[C@@H]1[C@@H](c2ccccc2)[C@@H](CO)N1C(=O)COC)S(C)(=O)=O`, the AC50 was > 10 µM (inactive). For `C[C@H](CO)N1C[C@H](C)[C@@H](CN(C)C(=O)Nc2ccccc2C(F)(F)F)OCc2cnnn2CCCC1=O`, the AC50 was > 10 µM (inactive). Regarding `O=C(Nc1ccccc1F)N1C[C@@H]2[C@H](c3ccccc31)[C@@H](CO)N2C(=O)Cc1cccnc1`, the AC50 was > 10 µM (inactive). As to `C/C=C/c1ccc([C@@H]2[C@H](CO)N[C@H]2CN(C(=O)c2ccccc2F)C(C)C)cc1`, the AC50 was > 10 µM (inactive).

In the case of `CN(C[C@H]1[C@H](c2ccccc2)[C@@H](CO)N1Cc1ccccn1)S(C)(=O)=O`, the AC50 was > 10 µM (inactive). Turning to `COc1ccc(NC(=O)N(C)C[C@@H]2OCc3cnnn3CCCC(=O)N([C@@H](C)CO)C[C@H]2C)c(OC)c1`, the AC50 is > 10 µM (inactive). For the compound `C[C@H]1CN([C@@H](C)CO)C(=O)CCCn2nncc2CO[C@@H]1CN(C)S(=O)(=O)c1cn(C)cn1`, the AC50 was > 10 µM (inactive).

In the case of `C/C=C/c1ccc([C@H]2[C@@H](CO)N(S(=O)(=O)CC)[C@H]2CN(C)C(=O)CC)cc1`, the AC50 was > 10 µM (inactive). For `CCCN1[C@H](CO)[C@H](c2ccc(C#Cc3ccccc3)cc2)[C@@H]1CNC1CCCC1`, the AC50 was > 10 µM (inactive). For the compound `COCC(=O)N1[C@@H](CO)[C@@H]2c3ccccc3NC[C@@H]21`, the AC50 was > 10 µM (inactive).

As to `Cc1noc(C)c1NC(=O)N(C)C[C@H]1OCc2cn(nn2)CCCC(=O)N([C@H](C)CO)C[C@@H]1C`, the AC50 was > 10 µM (inactive). As for `O=C(c1ccccc1F)N1C[C@H]2[C@@H](c3ccccc31)[C@H](CO)N2C(=O)Nc1ccccc1`, the AC50 is > 10 µM (inactive). Turning to `Cc1cccc(S(=O)(=O)N2C[C@H]3[C@@H](c4ccccc42)[C@@H](CO)N3C(=O)c2ccccc2)c1`, the AC50 was > 10 µM (inactive). Take `COc1ccccc1S(=O)(=O)N(C)C[C@@H]1OCc2cn(nn2)CCCC(=O)N([C@@H](C)CO)C[C@H]1C`: the AC50 is > 10 µM (inactive). On to `CC(=O)NC[C@@H]1[C@@H](c2ccc(C#Cc3ccccc3F)cc2)[C@@H](CO)N1C(C)=O`, for which the AC50 was > 10 µM (inactive). Consider `O=C(NC[C@@H]1[C@@H](c2ccccc2)[C@@H](CO)N1Cc1cccnc1)c1ccccn1`, for which the AC50 is > 10 µM (inactive). The same measure for `O=C(CC(F)(F)F)N1C[C@@H]2[C@H](c3ccccc31)[C@@H](CO)N2C(=O)c1ccncc1`: > 10 µM (inactive).

In the case of `COCC(=O)N1[C@H](CO)[C@H]2c3ccccc3NC[C@H]21`, the AC50 is > 10 µM (inactive).

`Cc1cccc(S(=O)(=O)N2C[C@@H]3[C@H](c4ccccc42)[C@@H](CO)N3C(=O)c2ccccc2)c1`: the AC50 was > 10 µM (inactive). As for `O=C(NC[C@H]1[C@@H](c2ccccc2)[C@@H](CO)N1C(=O)C1CCC1)NC1CCCC1`, the AC50 was > 10 µM (inactive). The same measure for `COCC(=O)N1[C@H](CO)[C@@H]2c3ccccc3NC[C@@H]21`: > 10 µM (inactive); for `O=C(Nc1ccc(F)cc1)N1C[C@H]2[C@@H](c3ccccc31)[C@@H](CO)N2Cc1ccccc1Cl`: > 10 µM (inactive); for `C[C@H]1CN([C@@H](C)CO)C(=O)CCCn2nncc2CO[C@H]1CN(C)C(=O)CCC(F)(F)F`: > 10 µM (inactive). The same measure for `C[C@H]1CN([C@@H](C)CO)C(=O)CCCn2nncc2CO[C@H]1CN(C)Cc1cccc(C(F)(F)F)c1`: > 10 µM (inactive); for `C[C@@H]1CN([C@H](C)CO)C(=O)CCCn2nncc2CO[C@H]1CN(C)Cc1cccc(C(F)(F)F)c1`: > 10 µM (inactive); for `CCCNC(=O)N1C[C@H]2[C@@H](c3ccccc31)[C@H](CO)N2Cc1cccc(OC)c1`: > 10 µM (inactive). `CCN(C[C@@H]1[C@@H](c2ccc(-c3cccnc3)cc2)[C@@H](CO)N1C(C)=O)C(C)=O`: the AC50 is > 10 µM (inactive). Take `C[C@H](CO)N1C[C@H](C)[C@@H](CN(C)C(=O)NC2CCCCC2)OCc2cn(nn2)CCCC1=O`: the AC50 was > 10 µM (inactive). The result for `CCCC(=O)N1C[C@H]2[C@@H](c3ccccc31)[C@@H](CO)N2Cc1cocn1` reads > 10 µM (inactive). As to `CC(=O)N1[C@H](CO)[C@H](c2ccccc2)[C@@H]1CNC(=O)CN1CCOCC1`, the AC50 is > 10 µM (inactive).

Turning to `CCN(C[C@@H]1[C@H](c2ccccc2)[C@@H](CO)N1C(=O)COC)S(C)(=O)=O`, the AC50 was > 10 µM (inactive). As for `C[C@H]1CN([C@@H](C)CO)C(=O)CCCn2nncc2CO[C@@H]1CN(C)S(=O)(=O)c1ccc2c(c1)OCCCO2`, the AC50 was > 10 µM (inactive). As for `CN(C[C@H]1[C@H](c2ccccc2)[C@@H](CO)N1CC1CC1)C(=O)c1ccc(F)cc1`, the AC50 was > 10 µM (inactive).

Regarding `C[C@@H]1CN([C@@H](C)CO)C(=O)CCCn2cc(nn2)CO[C@@H]1CN(C)C(=O)Nc1ccc2c(c1)OCO2`, the AC50 is > 10 µM (inactive). The result for `C[C@@H]1CN([C@@H](C)CO)C(=O)CCCn2nncc2CO[C@@H]1CN(C)Cc1ccc2c(c1)OCCN2C` reads > 10 µM (inactive). The same measure for `COCC(=O)N1[C@H](CO)[C@H]2c3ccccc3N(C(=O)Nc3ccccc3Cl)C[C@H]21`: > 10 µM (inactive); for `Cc1noc(C)c1S(=O)(=O)N(C)C[C@H]1OCc2cnnn2CCCC(=O)N([C@H](C)CO)C[C@@H]1C`: > 10 µM (inactive). Turning to `C[C@H]1CN([C@@H](C)CO)C(=O)CCCn2cc(nn2)CO[C@H]1CN(C)C(=O)NC1CCCCC1`, the AC50 was > 10 µM (inactive). The result for `CCS(=O)(=O)N1[C@H](CO)[C@H](c2ccccc2)[C@@H]1CN(C)Cc1ccccn1` reads > 10 µM (inactive); that for `O=C(NC[C@@H]1[C@H](c2ccccc2)[C@H](CO)N1Cc1ccccn1)C1CCCC1`, > 10 µM (inactive); that for `CCN(C[C@H]1N[C@@H](CO)[C@@H]1c1ccccc1)C(=O)c1ccncc1`, > 10 µM (inactive).

For the compound `CN(C[C@@H]1N[C@H](CO)[C@@H]1c1ccc(C#CCC2CCCC2)cc1)S(C)(=O)=O`, the AC50 is > 10 µM (inactive). The same measure for `CCCN1[C@H](CO)[C@H](c2ccc(-c3ccccc3F)cc2)[C@@H]1CNC(=O)C1CCC1`: > 10 µM (inactive); for `O=C(c1ccccc1)N1C[C@@H]2[C@H](c3ccccc31)[C@H](CO)N2Cc1ccccn1`: > 10 µM (inactive). For the compound `C[C@H]1CN([C@@H](C)CO)C(=O)CCCn2cc(nn2)CO[C@H]1CN(C)C(=O)CCC(F)(F)F`, the AC50 is > 10 µM (inactive). The result for `Cc1noc(C)c1NC(=O)N(C)C[C@@H]1OCc2cn(nn2)CCCC(=O)N([C@H](C)CO)C[C@@H]1C` reads > 10 µM (inactive). The result for `CCC(=O)N1[C@H](CO)[C@H]2c3ccccc3N(C(=O)Nc3ccc(Cl)cc3)C[C@H]21` reads > 10 µM (inactive); that for `C[C@H]1CN([C@@H](C)CO)C(=O)CCCn2cc(nn2)CO[C@H]1CN(C)S(=O)(=O)c1cccc(C#N)c1`, > 10 µM (inactive); that for `C[C@@H]1CN([C@H](C)CO)C(=O)CCCn2nncc2CO[C@H]1CN(C)S(=O)(=O)c1ccccc1C#N`, > 10 µM (inactive). The same measure for `C[C@H]1CN([C@@H](C)CO)C(=O)CCCn2cc(nn2)CO[C@@H]1CN(C)C(=O)Oc1ccc2ccccc2c1`: > 10 µM (inactive).

As for `C[C@@H]1CN([C@H](C)CO)C(=O)CCCn2cc(nn2)CO[C@@H]1CN(C)C(=O)CCC(F)(F)F`, the AC50 was > 10 µM (inactive).

As for `C[C@@H]1CN([C@@H](C)CO)C(=O)CCCn2cc(nn2)CO[C@@H]1CN(C)S(=O)(=O)c1ccc(-n2cccn2)cc1`, the AC50 was > 10 µM (inactive).

Turning to `O=C(c1cccc(F)c1)N1C[C@@H]2[C@H](c3ccccc31)[C@H](CO)N2Cc1cocn1`, the AC50 is > 10 µM (inactive). In the case of `C[C@@H]1CN([C@@H](C)CO)C(=O)CCCn2nncc2CO[C@H]1CN(C)C(=O)Nc1cccc(Oc2ccccn2)c1`, the AC50 is > 10 µM (inactive).
